Test results published in paper PMC12491701, “Discovery of an APP-selective BACE1 inhibitor for Alzheimer's disease” (Neurotherapeutics, 2025).
pIC50: −log10 of the molar value. “Also recorded” adds a separate entry of the source.

Experiments:
[1] = biological target: T1, BACE2 (Homo sapiens, UniProt Q9Y5Z0); test: BACE2 activity assay; format: biochemical
T1 construct: purchased R&D Systems 4097-AS
T1 sequence (Q9Y5Z0 63-518): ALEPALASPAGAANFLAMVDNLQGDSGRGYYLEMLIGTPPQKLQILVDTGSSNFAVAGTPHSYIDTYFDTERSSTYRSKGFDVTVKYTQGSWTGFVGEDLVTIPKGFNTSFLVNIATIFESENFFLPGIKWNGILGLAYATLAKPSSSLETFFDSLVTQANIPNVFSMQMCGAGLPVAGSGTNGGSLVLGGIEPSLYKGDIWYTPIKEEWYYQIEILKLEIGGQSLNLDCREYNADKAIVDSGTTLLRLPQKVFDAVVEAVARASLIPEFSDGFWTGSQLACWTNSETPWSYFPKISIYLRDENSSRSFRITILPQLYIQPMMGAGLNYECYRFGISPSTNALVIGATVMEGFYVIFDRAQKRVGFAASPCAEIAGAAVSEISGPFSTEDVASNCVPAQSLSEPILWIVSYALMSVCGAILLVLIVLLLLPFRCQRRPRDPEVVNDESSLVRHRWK
Experimental: The effects of candidate ASBIs on BACE2 activity was assessed using the R&D Systems BACE2 activity assay kit (Catalog #: 4097-AS and ES010) formatted from to the manufacturers. For the assay, 4 μL of assay buffer was added to each well, followed by 2 μL of BACE2 diluted in assay buffer to 10 ng/µL.
Then, 2 μL of inhibitor, at the appropriate concentrations were added to the wells and incubated for 30 minutes at room temperature. For all dilutions of inhibitor, drug stock solutions of 10 mM in DMSO were diluted to 50 μM in water; subsequent dilutions were in 0.5% DMSO. Afterwards, 2 μL of fluorogenic BACE2 substrate, diluted to 50 μM in assay buffer, were added to each well, after which the signal generated was read every 30 minutes at 25 °C for 2 hr (Fig S2).
FAH65 and its enantiomers at 10 mM in 100% DMSO was diluted in PBS pH 7.4 to 100, 10, 1, and 0.1 µM; plus, a vehicle-only control. The solutions were incubated at 37 °C for 90 min and centrifuged at 16K x g for 5 min. An aliquot of each supernatant was analyzed by LC-MS/MS. A standard curve was generated by plotting the known amount of analyte per standard in DMSO vs. chromatographic peak […]
Kinetic solubility (µM) was calculated using the trendline equation with maximum chromatographic peak area observed in the aqueous sample. (Table S3)
Liver microsome stability assay […]

[2] = test system: CHO-7W cells expressing wildtype human APP; test: sAPPβ and Aβ1-42 production in CHO-7W cells (AlphaLISA); format: cell-based, Chinese hamster
Experimental: Culture Media was collected and frozen. Media was assayed using an AlphaLISA for Aβ1-42 (Perkin Elmer catalog # AL276C), sAPPα (R&D Systems catalog # AF1168 conjugated with Perkin Elmer acceptor beads catalog # 6772001 + 2B3 antibody from IBL catalog # 11088 biotinylated), and sAPPβ (Perkin Elmer AL276-acceptor + IBL catalog # 18957 biotinylated). For the assay, 2 μL of diluted or undiluted sample was added to a 384 well plate, followed by 2 μL of the respective antibody mixture. This was incubated for 1 h. Afterwards, 2 μL of donor beads was added to each well, followed by a 30-min incubation in the dark, after which the signal was read.

- pIC50 [1]: < 6.00
Structure (SMILES): Cc1cc(C2(c3cccc(-c4cncnc4)c3)N=C(N)N(C)C2=O)ccc1OC(F)F (centres unmarked) [FAH65]
- inhibition of BACE2 activity ([1]; in words): no inhibition; also recorded: did not inhibit
- sAPPβ reduction [2]: > 90%
- sAPPβ production ([2]; 1 μM, 24-h treatment, in words): decrease
- Aβ1-42 production ([2]; 1 μM, in words): decrease
